Assay results published in patent US20170334899A1, “AMINO-SUBSTITUTED ISOTHIAZOLES” (Bayer Pharma Aktiengesellschaft, priority 2014, published 2017).

Legend:
Assay type in all cases: cell-based
[1] = tested on: human cervical tumor cell line HeLa (ATCC CCL-2); assay: SAC-Formation - Nocodazole-Induced Assay; conditions: Homo sapiens, HeLa, 24 h, HeLa cells, nocodazole 0.1 μg/ml together with test compound, decrease of mitotic cells (phospho-histone H3 Ser10)
From the text: (§1) The spindle assembly checkpoint assures the proper segregation of chromosomes during mitosis. Upon entry into mitosis, chromosomes begin to condensate which is accompanied by the phosphorylation of histone H3 on serine 10. Dephosphorylation of histone H3 on serine 10 begins in anaphase and ends at early telophase. Accordingly, phosphorylation of histone H3 on serine 10 can be utilized as a marker of cells in mitosis. Nocodazole is a microtubule destabilizing substance. Paclitaxel is a microtubule stabilizing compound. Thus, nocodazole as well as paclitaxel interfere with microtubule dynamics and mobilize the spindle assembly checkpoint. […] The mitotic breakthrough can be detected by the decrease of cells with phosphorylation of histone H3 on serine 10. This decline is used as a marker to determine the capability of compounds of the present invention to induce a mitotic breakthrough. The typical morphological alteration of nuclei with a prematurely completed mitosis after SAC-inhibition can be monitored via image analysis routines supporting those findings.
(§2) The nocodazole and paclitaxel variations were used to focus on compounds that are capable of inhibiting a SAC induced by both microtubule destabilization as well as microtubule stabilization. When SAC inducing agents and compounds are given simultaneously inhibitors that effectively block the SAC during formation or abrogation are identified. When cells are incubated with a SAC inducing agent and the SAC interfering compound is given after a defined time, inhibitors are identified that effectively block SAC abrogation.
(§3) Cultivated cells of the human cervical tumor cell line HeLa (ATCC CCL-2) were plated at a density of 1000 cells/well in a 1536-well microtiter plate in 2 μl PAA Ham's F12 Medium supplemented with 1% (v/v) glutamine, 1% (v/v) penicillin, 1% (v/v) streptomycin and 10% (v/v) fetal calf serum. After incubation overnight at 37° C., 10 μl/well nocodazole at a final concentration of 0.1 μg/ml were added to cells. Test compounds solubilized in dimethyl sulfoxide (DMSO) were added at various concentrations (0 μM, as well as in the range of 0.005 μM-20 μM; the final concentration of the solvent DMSO was 0.5% (v/v)). Cells were incubated for 24 h at 37° C. in the presence of test compounds in combination with nocodazole. Thereafter, cells were fixed in 4% (v/v) paraformaldehyde in phosphate buffered saline (PBS) at 4° C. overnight then permeabilized in 0.1% (v/v) Triton X™ 100 in PBS at room temperature for 20 min and blocked in 0.5% (v/v) bovine serum albumin (BSA) in PBS at room temperature for 15 min. After washing with PBS, 5 μl/well antibody solution (anti-phospho-histone H3 clone 3H10, FITC; Millipore, Cat#16-222; 1:1000 dilution) was added to cells, which were incubated for 2 h at room temperature. Afterwards, cells were washed with PBS and 5 μl/well solution of HOECHST 33342 dye (5 μg/ml) was added to cells and cells were incubated 15 min at room temperature in the dark. Cells were washed twice with PBS then covered with PBS and stored at 4° C. until analysis. Images were acquired with a PERKIN ELMER OPERA™ High-Content Analysis reader. Images were analyzed with image analysis software MetaXpress™ from Molecular devices utilizing the Mitotic Index application module. In this assay both labels HOECHST 33342 and phosphorylated Histone H3 on serine 10 were measured. HOECHST 33342 labels the DNA and is used to count the cell number. The staining of phosphorylated Histone H3 on serine 10 determines the number of mitotic cells. […] Otherwise cells were arrested at G2/M phase of the cell cycle progression. The raw assay data were further analyzed by four-parametric hill equation using Genedata's Assay Analyzer and Condoseo software.

[2] = tested on: human cervical tumor cell line HeLa (ATCC CCL-2); assay: SAC-Formation - Paclitaxel-Induced Assay; conditions: Homo sapiens, HeLa, 24 h, HeLa cells, paclitaxel 0.05 μM, test range 0.005 μM-20 μM, read-out: IC50 [mol/l] SAC-Formation - Paclitaxel-Induced Assay
From the text: as §1, §2
Cultivated cells of the human cervical tumor cell line HeLa (ATCC CCL-2) were plated at a density of 1000 cells/well in a 1536-well microtiter plate in 2 μl PAA
as §3, with “Ham's” for “Cultivated cells of the human cervical tumor cell line HeLa (ATCC CCL-2) were plated at a density of 1000 cells/well in a 1536-well microtiter plate in 2 μl PAA Ham's”, “paclitaxel” for “nocodazole”, “0.05 μM” for “0.1 μg/ml”, “μM -20” for “μM-20”, “paclitaxel.” for “nocodazole.”

[3] = tested on: HeLa; assay: Proliferation assay (crystal violet), HeLa; conditions: Homo sapiens, HeLa, 96 h, HeLa cells; 4 days incubation; crystal violet staining; read-out: IC50 inhibition of proliferation, HeLa
Procedure: Cultivated tumor cells (cells were ordered from ATCC, except HeLa-MaTu and HeLa-MaTu-ADR, which were ordered from EPO-GmbH, Berlin) were plated at a density of 1000 to 5000 cells/well, depending on the growth rate of the respective cell line, in a 96-well multititer plate in 200 μL of their respective growth medium supplemented 10% fetal calf serum. After 24 hours, the cells of one plate (zero-point plate) were stained with crystal violet (see below), while the medium of the other plates was replaced by fresh culture medium (200 μl), to which the test substances were added in various concentrations (0 μM, as well as in the range of 0.001-10 μM; the final concentration of the solvent dimethyl sulfoxide was 0.5%). The cells were incubated for 4 days in the presence of test substances. Cell proliferation was determined by staining the cells with crystal violet: the cells were fixed by adding 20 μl/measuring point of an 11% glutaric aldehyde solution for 15 minutes at room temperature. After three washing cycles of the fixed cells with water, the plates were dried at room temperature. The cells were stained by adding 100 μl/measuring point of a 0.1% crystal violet solution (pH 3.0). After three washing cycles of the stained cells with water, the plates were dried at room temperature. The dye was dissolved by adding 100 μl/measuring point of a 10% acetic acid solution. Absorbtion was determined by photometry at a wavelength of 595 nm. The change of cell number, in percent, was calculated by normalization of the measured values to the aborbtion values of the zero-point plate (=0%) and the absorbtion of the untreated (0 μm) cells (=100%). The IC50 values were determined by means of a 4 parameter fit.

Compound | IC50 [1] [µM] | IC50 [2] [µM] | IC50 [3] [µM]
COC(=O)CCNC(=O)c1cccc(NC(=O)c2c(C)nsc2Nc2cnc3ccccc3n2)c1 [Example 74, Methyl N-[3-({[3-methyl-5-(quinoxalin-2-ylamino)-1,2-thiazol-4-yl]carbonyl}amino)benzoyl]-β-alaninate] | 1.3 | 5.3 | 10
Cc1nsc(Nc2cnc3ccccc3n2)c1C(=O)Nc1cccc(C(=O)N2CCN(c3cnccn3)CC2)c1 [Example 79, 3-Methyl-N-(3-{[4-(pyrazin-2-yl)piperazin-1-yl]carbonyl}-phenyl)-5-(quinoxalin-2-ylamino)-1,2-thiazole-4-carboxamide] | 0.9 | 3.7 | 10
COC(=O)CN(C)C(=O)c1cccc(NC(=O)c2c(C)nsc2Nc2cnc3ccccc3n2)c1 [Example 76, Methyl N-methyl-N-[3-({[3-methyl-5-(quinoxalin-2-ylamino)-1,2-thiazol-4-yl]carbonyl}amino)benzoyl]-glycinate] | 5 | 18 | 10
CCN(C)C(=O)c1cccc(NC(=O)c2c(C)nsc2Nc2cnc3ccccc3n2)c1 [Example 67, N-{3-[Ethyl(methyl)carbamoyl]phenyl}-3-methyl-5-(quinoxalin-2-ylamino)-1,2-thiazole-4-carboxamide] | 0.016 | 0.67 | 10
COc1cc(NC(=O)c2cccc(NC(=O)c3c(C)nsc3Nc3cnc4ccccc4n3)c2)cc(OC)c1OC [Example 77, 3-Methyl-5-(quinoxalin-2-ylamino)-N-{3-[(3,4,5-trimethoxy-phenyl)carbamoyl]phenyl}-1,2-thiazole-4-carboxamide] | 2.2 | 10 | 10
Cc1nsc(Nc2cnc3ccccc3n2)c1C(=O)Nc1cccc(C(=O)NCCN(C)C)c1 [Example 75, N-(3-{[2-(dimethylamino)ethyl]carbamoyl}phenyl)-3-methyl-5-(quinoxalin-2-ylamino)-1,2-thiazole-4-carboxamide] | 0.015 | 10 | 10

The remaining lines, values ahead:

IC50 [1] [µM] | IC50 [2] [µM] | IC50 [3] [µM] | Compound
3.7 | 14 | 10 | Cc1nsc(Nc2cnc3ccccc3n2)c1C(=O)Nc1cccc(C(=O)N(C)CCc2ccncc2)c1 [Example 82, 3-Methyl-N-(3-{methyl[2-(pyridin-4-yl)ethyl]carbamoyl}-phenyl)-5-(quinoxalin-2-ylamino)-1,2-thiazole-4-carboxamide]
0.096 | 8.4 | 10 | CC(=O)Nc1ccccc1NC(=O)c1cccc(NC(=O)c2c(C)nsc2Nc2cnc3ccccc3n2)c1 [Example 84, N-(3-{[2-(Acetylamino)phenyl]carbamoyl}phenyl)-3-methyl-5-(quinoxalin-2-ylamino)-1,2-thiazole-4-carboxamide]
1.8 | 3.5 | 8.3 | Cc1nsc(Nc2cnc3ccccc3n2)c1C(=O)Nc1cccc(C(=O)N2CCN(c3ccccc3C#N)CC2)c1 [Example 80, N-(3-{[4-(2-Cyanophenyl)piperazin-1-yl]carbonyl}phenyl)-3-methyl-5-(quinoxalin-2-ylamino)-1,2-thiazole-4-carboxamide]
0.031 | 0.48 | 10 | Cc1nsc(Nc2cnc3ccccc3n2)c1C(=O)Nc1cccc(C(=O)N2CCN(C(=O)c3ccccc3)CC2)c1 [Example 88, N-{3-[(4-Benzoylpiperazin-1-yl)carbonyl]phenyl}-3-methyl-5-(quinoxalin-2-ylamino)-1,2-thiazole-4-carboxamide]
0.018 | 0.97 | 8.9 | COCCCNC(=O)c1cccc(NC(=O)c2c(C)nsc2Nc2cnc3ccccc3n2)c1 [Example 85, N-{3-[(3-Methoxypropyl)carbamoyl]phenyl}-3-methyl-5-(quinoxalin-2-ylamino)-1,2-thiazole-4-carboxamide]
0.94 | 20 | 10 | Cc1nsc(Nc2cnc3ccccc3n2)c1C(=O)Nc1cccc(C(=O)N2CCN(CC(=O)N(C)C)CC2)c1 [Example 92, N-[3-({4-[2-(Dimethylamino)-2-oxoethyl]piperazin-1-yl}-carbonyl)phenyl]-3-methyl-5-(quinoxalin-2-ylamino)-1,2-thiazole-4-carboxamide]
12 | 20 | > 10 | Cc1nsc(Nc2cnc3ccccc3n2)c1C(=O)Nc1cccc(N)c1 [Example 450, N-(3-Aminophenyl)-3-methyl-5-(quinoxalin-2-ylamino)-1,2-thiazole-4-carboxamide]
